# Legend:
# [1] = target: 72 kDa type IV collagenase (Homo sapiens, UniProt P08253); experiment: Inhibition of Matrix metalloprotease-2 (MMP-2)
# Stromelysin-1 [2] = target: T1, Stromelysin-1 (Homo sapiens, UniProt P08254); experiment: Inhibition of Matrix metalloprotease-3 (MMP-3) at 50 uM
# Target sequence in this assay (P08254 100-477 limits assumed): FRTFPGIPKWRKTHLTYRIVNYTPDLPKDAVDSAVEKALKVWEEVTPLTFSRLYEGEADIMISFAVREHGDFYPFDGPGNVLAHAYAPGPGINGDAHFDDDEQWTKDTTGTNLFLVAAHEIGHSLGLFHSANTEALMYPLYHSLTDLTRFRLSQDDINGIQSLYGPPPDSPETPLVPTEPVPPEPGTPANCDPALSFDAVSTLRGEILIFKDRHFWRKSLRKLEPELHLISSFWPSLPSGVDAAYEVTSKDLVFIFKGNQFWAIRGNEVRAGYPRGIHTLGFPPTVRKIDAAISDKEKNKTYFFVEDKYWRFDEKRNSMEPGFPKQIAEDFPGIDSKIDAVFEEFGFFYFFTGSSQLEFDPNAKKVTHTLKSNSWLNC
# [3] = target: Matrix metalloproteinase-9 (Homo sapiens, UniProt P14780); experiment: Inhibition of Matrix metalloprotease-9
# Interstitial collagenase = target: T2, Interstitial collagenase (Homo sapiens, UniProt P03956); experiment: Inhibition of Matrix metalloprotease-1 (MMP-1)
# T2 sequence (P03956 whole entry): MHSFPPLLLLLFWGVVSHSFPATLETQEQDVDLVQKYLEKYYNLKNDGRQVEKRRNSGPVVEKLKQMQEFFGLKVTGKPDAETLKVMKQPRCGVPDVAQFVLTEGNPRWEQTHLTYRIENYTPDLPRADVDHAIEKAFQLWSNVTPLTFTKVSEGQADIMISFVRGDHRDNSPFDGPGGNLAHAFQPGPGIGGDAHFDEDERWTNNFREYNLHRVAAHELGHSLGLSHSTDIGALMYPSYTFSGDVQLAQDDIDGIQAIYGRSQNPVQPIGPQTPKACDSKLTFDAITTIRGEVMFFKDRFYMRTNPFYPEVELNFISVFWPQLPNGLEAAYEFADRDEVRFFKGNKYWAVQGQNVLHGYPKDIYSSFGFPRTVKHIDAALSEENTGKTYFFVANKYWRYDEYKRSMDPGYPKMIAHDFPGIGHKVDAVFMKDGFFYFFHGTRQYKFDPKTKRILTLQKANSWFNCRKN
# Stromelysin-1 [4] = target: T1, Stromelysin-1; experiment: Inhibition of Matrix metalloprotease-3 (MMP-3)
# Target sequence in this assay (P08254 whole entry): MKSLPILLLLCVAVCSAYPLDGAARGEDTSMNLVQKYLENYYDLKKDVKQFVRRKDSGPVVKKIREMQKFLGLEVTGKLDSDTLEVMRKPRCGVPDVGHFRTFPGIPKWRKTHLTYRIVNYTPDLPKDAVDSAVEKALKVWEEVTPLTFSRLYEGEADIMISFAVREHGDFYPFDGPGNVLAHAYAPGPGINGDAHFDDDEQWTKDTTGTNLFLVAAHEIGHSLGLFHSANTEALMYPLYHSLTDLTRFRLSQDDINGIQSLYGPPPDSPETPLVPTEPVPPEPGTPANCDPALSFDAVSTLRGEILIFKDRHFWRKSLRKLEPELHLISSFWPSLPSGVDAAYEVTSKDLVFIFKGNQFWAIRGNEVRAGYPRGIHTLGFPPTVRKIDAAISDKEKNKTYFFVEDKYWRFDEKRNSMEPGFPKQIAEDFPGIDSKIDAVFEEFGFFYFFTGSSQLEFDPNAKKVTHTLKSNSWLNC
# 72 kDa type IV collagenase, sequence (P08253 whole entry): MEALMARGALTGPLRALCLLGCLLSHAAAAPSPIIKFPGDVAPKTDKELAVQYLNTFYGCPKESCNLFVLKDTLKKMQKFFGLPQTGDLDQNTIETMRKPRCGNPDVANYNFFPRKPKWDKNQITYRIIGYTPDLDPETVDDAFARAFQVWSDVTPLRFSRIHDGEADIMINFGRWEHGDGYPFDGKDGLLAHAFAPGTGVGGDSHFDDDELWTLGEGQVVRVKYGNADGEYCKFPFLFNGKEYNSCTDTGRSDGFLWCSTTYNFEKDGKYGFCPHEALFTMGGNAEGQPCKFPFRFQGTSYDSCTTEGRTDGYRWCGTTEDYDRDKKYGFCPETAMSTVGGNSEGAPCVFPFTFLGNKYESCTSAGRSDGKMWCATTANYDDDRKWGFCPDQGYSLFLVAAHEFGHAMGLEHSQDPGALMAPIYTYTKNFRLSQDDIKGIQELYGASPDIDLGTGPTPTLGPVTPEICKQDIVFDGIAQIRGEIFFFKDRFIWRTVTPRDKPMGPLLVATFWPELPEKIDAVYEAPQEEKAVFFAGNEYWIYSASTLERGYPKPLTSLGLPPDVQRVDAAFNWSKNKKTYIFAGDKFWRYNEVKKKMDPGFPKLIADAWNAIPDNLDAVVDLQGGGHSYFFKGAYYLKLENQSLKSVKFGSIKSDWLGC
# Matrix metalloproteinase-9, sequence (P14780 whole entry): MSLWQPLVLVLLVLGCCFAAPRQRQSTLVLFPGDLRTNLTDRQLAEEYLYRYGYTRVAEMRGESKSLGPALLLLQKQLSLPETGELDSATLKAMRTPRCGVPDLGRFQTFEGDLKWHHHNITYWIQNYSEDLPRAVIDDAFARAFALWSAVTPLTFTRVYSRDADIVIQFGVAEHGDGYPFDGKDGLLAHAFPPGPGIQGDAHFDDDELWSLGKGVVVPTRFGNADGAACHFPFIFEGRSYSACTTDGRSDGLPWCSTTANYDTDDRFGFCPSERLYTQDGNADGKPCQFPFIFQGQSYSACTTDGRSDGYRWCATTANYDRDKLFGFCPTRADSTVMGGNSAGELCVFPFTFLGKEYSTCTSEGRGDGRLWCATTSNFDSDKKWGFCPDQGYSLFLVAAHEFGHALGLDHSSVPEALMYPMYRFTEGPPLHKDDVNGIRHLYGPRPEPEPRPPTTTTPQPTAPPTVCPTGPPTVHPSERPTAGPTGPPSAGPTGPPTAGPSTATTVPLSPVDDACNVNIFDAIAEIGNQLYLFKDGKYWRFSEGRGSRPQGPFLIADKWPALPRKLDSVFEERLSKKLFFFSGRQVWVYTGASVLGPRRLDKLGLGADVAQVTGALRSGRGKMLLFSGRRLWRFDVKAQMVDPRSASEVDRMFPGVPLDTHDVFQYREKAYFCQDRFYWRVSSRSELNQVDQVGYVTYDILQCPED
Ki [1],inhibition (Stromelysin-1 [2]),Ki [3],Ki (Interstitial collagenase),Ki (Stromelysin-1 [4]),Compound
5300 nM,10%,9900 nM,22400 nM,–,CNC(=O)[C@H](Cc1ccc(OC)cc1)NS(=O)(=O)C(CCc1ccccc1)CC(=O)O (stereo not given in full)
3000 nM,–,19200 nM,> 50000 nM,19100 nM,CNC(=O)[C@H](Cc1ccc(OC)cc1)NS(=O)(=O)C(CC(=O)O)CC(C)C (stereo not given in full)
550 nM,–,1500 nM,640 nM,2200 nM,CNC(=O)[C@H](Cc1ccc(OC)cc1)NS(=O)(=O)C(CCc1ccccc1)CC(=O)NO (stereo not given in full)
1300 nM,10%,290 nM,11200 nM,–,CCCCCCC(CC(=O)O)S(=O)(=O)N[C@@H](Cc1ccc(OC)cc1)C(=O)NC (stereo not given in full)
–,–,< 10 nM,–,< 10 nM,CNC(=O)[C@H](Cc1ccc(OC)cc1)NC(=O)[C@@H](CC(=O)NO)CC(C)C
620 nM,–,620 nM,770 nM,4100 nM,CNC(=O)[C@H](Cc1ccc(OC)cc1)NS(=O)(=O)C(CC(=O)NO)CC(C)C (stereo not given in full)
430 nM,–,210 nM,2300 nM,4000 nM,CCCCCCC(CC(=O)NO)S(=O)(=O)N[C@@H](Cc1ccc(OC)cc1)C(=O)NC (stereo not given in full)
860 nM,–,184 nM,336 nM,29400 nM,CNC(=O)[C@H](Cc1ccc(OC)cc1)NC(=O)[C@@H](CC(=O)O)CC(C)C
